According to US20240100013A1, “SOTAGLIFLOZIN FOR IMPROVING LEFT ATRIAL FUNCTION” (CHARITÉ-UNIVERSITÄTSMEDIZIN BERLIN, priority 2021, published 2024):

Key:
[1] = tested on: HFpEF (ZSF-1 obese) rats; assay: Echocardiography of LA size in the ZSF-1 obese rat model of HFpEF after chronic treatment; format: in vivo; details: 30 mg/kg/day oral feeding, seven weeks, vs vehicle
Excerpt: Animal experiments were approved by local authorities. The ZSF-1 obese rat model is based on a leptin receptor mutation resulting in severe metabolic dysfunction. See Bilan V P, Salah E M, Bastacky S, Jones H B, Mayers R M, Zinker B, Poucher S M, Tofovic S P: “Diabetic nephropathy and long-term treatment effects of rosiglitazone and enalapril in obese ZSF1 rats,” J Endocrinol 2011, 210(3):293-308. The model has repeatedly been reported to show distinct features of HFpEF, such as an increased left ventricular (LV) end diastolic pressure, LV hypertrophy, diastolic dysfunction, lung congestion and LA remodeling, while maintaining a preserved ejection fraction (EF).
Echocardiography. Echocardiography was performed and analyzed as previously described (See Hohendanner F, Bode D, Primessnig U, Guthof T, Doerr R, Jeuthe S, Reimers S, Zhang K, Bach D, Wakula P et al: “Cellular mechanisms of metabolic syndrome-related atrial decompensation in a rat model of HFpEF” J Mol Cell Cardiol 2018, 115:10-19) by an experienced observer (N.H.) blinded to the treatment group immediately prior to sacrifice using a vevo lab ultrasound system to assess LA size and LV fractional shortening in vivo. 1-lead electrocardiograms were obtained during echocardiography and the presence or absence of atrial rhythm disorders i.e., atrial fibrillation was documented.

[2] = tested on: LA cardiomyocytes; assay: Sarcomere shortening of LA cardiomyocytes; format: cell-based, rat
Protocol: Ca^2+ measurements and sarcomere shortening. Radiometric Ca^2+ measurements (excitation: 340 nm and 385 nm, emission: 510±10 nm; [Ca^2+] expressed as the ratio R=F340/F380) were performed either with a CytoCypher MultiCell System (CytoCypher BV, Netherlands; FIGS. 1C-F, 2D-G, 4A-F) or an Axiovert 200 microscope (Zeiss, Oberkochen, Germany) fluorescence imaging assembly (FIGS. 2A-C, 2H-J, 3A-E, 6E-I). LA cardiomyocytes were loaded with Fura-2 for 30 min at room temperature, washed twice with Tyrode solution and transferred to the microscope. Experiments were conducted at 37° C. and CaT were recorded at steady state (following electric stimulation).
CaT and sarcomere shortening of LA and LV cardiomyocytes were recorded for 10 s at 3 Hz stimulation. See FIGS. 2D-G, 4A-F. Electric stimulation was turned off and spontaneous SR Ca^2+ release events (See Voigt N, Heijman J, Wang Q, Chiang D Y, Li N, Karck M, Wehrens X H T, Nattel S, Dobrev D: “Cellular and molecular mechanisms of atrial arrhythmogenesis in patients with paroxysmal atrial fibrillation,” Circulation 2014, 129(2):145-156) (SCaEs) immediately recorded for a duration of 10 s (FIG. 1C-F). In a sub-set of LA cells, CaT were recorded for 10 s at 1 Hz stimulation. Electric stimulation was turned off, the cells immediately exposed to 20 mM caffeine and the sub-sequent caffeine-induced CaT recorded for 10 s (FIG. 2A-C, 3A-E). Sodium-calcium exchanger (NCX) activity was calculated as previously described. See Hohendanner F, Walther S, Maxwell J T, Kettlewell S, Awad S, Smith G L, Lonchyna V A, Blatter L A: “Inositol-1,4,5-trisphosphate induced Ca^2+ release and excitation-contraction coupling in atrial myocytes from normal and failing hearts,” J Physiol 2015, 593(6):1459-1477.

[3] = tested on: LA cardiomyocytes; assay: Mitochondrial structure and Ca2+ uptake in LA cardiomyocytes; format: cell-based, rat; details: HFpEF
Excerpt: For cell membrane permeabilization and subsequent measurements of mitochondrial Ca^2+ uptake (See ‘Mitochondrial structure and Ca^2+ uptake’) wash and internal solutions were used. Wash solution contained (in mM): 100 potassium acetate, 15 KCl, 0.35 EGTA, 0.75 MgCl2, 10 HEPES; pH adjusted to 7.2 with KOH. Internal solution contained (in mM): 125 KCl, 10 NaCl, 20 HEPES, 5 pyruvate, 2 maleic acid, 2 glutamic acid, 0.5 KH2PO4, 0.5 MgCl2, 5 EGTA, 0.002 free Ca^2+(MaxChelator), 15 BDM, pH adjusted to 7.2 with KOH. For permeabilization, 0.005% saponin was added to the internal solution.
Mitochondrial structure and Ca^2+ uptake. Mitochondrial structure was visualized by local thresholding of two-dimensional images acquired with MitoTracker Red (FIGS. 5A-B, 6D) and MitoTracker Green (FIGS. 4C-F) at an LSM 800 laser scanning microscope (Zeiss, Oberkochen, Germany). The fraction of mitochondria in relation to cell surface was taken as a measure of mitochondrial density. The averaged perimeter to area ratio of mitochondrial structures per cell was calculated as an indicator of mitochondrial fission using a 2-step Otsu thresholding algorithm. See Hohendanner F, Ljubojevic S, MacQuaide N, Sacherer M, Sedej S, Biesmans L, Wakula P, Platzer D, Sokolow S, Herchuelz A et al: “Intracellular dyssynchrony of diastolic cytosolic [Ca(2)(+)] decay in ventricular cardiomyocytes in cardiac remodeling and human heart failure,” Circ Res 2013, 113(5):527-538.
Mitochondrial Ca^2+ uptake was determined as previously described in detail. See Maxwell J T, Tsai C H, Mohiuddin T A, Kwong J Q: “Analyses of Mitochondrial Calcium Influx in Isolated Mitochondria and Cultured Cells,” Journal of visualized experiments: JoVE 2018(134). LA cardiomyocytes were loaded with Rhod-2 AM and MitoTracker green, transferred to an LSM 800 laser scanning microscope and washed twice with sodium and calcium-free wash solution. The cells were then permeabilized with internal solution containing 0.005% saponin for a duration of 30-60 s and consecutively washed twice with nominal Ca^2+ free internal solution containing 5 mM EGTA. Two-dimensional images of Rhod-2 (excitation: 559 nm, emission: 575-675 nm) and MitoTracker green fluorescence (excitation: 488 nm, emission: 505-525 nm) were obtained. The perfusion was switched to internal solution containing 2 μM Ca^2+. After 1 min, a second set of Rhod-2/MitoTracker images was obtained. Following another 1-min interval, a third set of images was obtained to confirm that mitochondrial Ca^2+ uptake had indeed been completed in the second set. A binary mask of mitochondrial structures was derived from MitoTracker green images and positive pixels defined as the region-of-interest for sub-sequent determination of Rhod-2 signal intensity (F). Signal intensity during perfusion with 0 μM Ca^2+ was defined as F0 and changes of [Ca^2+] after exposure to 2 μM Ca^2+ expressed as ΔF=F−F0. The change of mitochondrial density (L.%) was quantified as a measure of mitochondrial swelling.

[4] = rats; 30 mg/kg/day; cited from earlier work

For `CCOc1ccc(Cc2cc([C@@H]3O[C@H](SC)[C@@H](O)[C@H](O)[C@H]3O)ccc2Cl)cc1` [sotagliflozin, (2S,3R,4R,5S,6R)-2-(4-chloro-3-(4-ethoxybenzyl)phenyl)-6-(methylthio)tetrahydro-2H-pyran-3,4,5-triol], the “LA enlargement (LA volume in vivo)” value [1] was “mitigates LA enlargement”, the “shortening of time-to-peak and relaxation time” value ([2]; HFpEF) was “this effect could not be observed” and the diastolic sarcomere length ([2]; HFpEF, 3 Hz, 5 mM extracellular [Ca2+]) was “significant increase”. The “Ca2+ sensitivity” value ([2]; HFpEF, relationship of CaT and sarcomere shortening) was “reduced”, the sarcomere relaxation time ([2]; WT) was “shortened” and the sarcomere shortening time-to-peak ([2]; WT) was “shortened”. The “increased density of mitochondria in LA cardiomyocytes” value [3] was “prevented”, the “increase of mitochondrial Ca2+ uptake” value ([3]; Sota vs vehicle) was “two-fold increase” and the mitochondrial fission ([3]; after 1 h glucose starvation) was “significantly reduced”. For the same molecule, the swelling of mitochondria ([3]; after exposure to 2 μM Ca2+) was “this effect did not occur”, the “mitochondrial Ca2+ uptake” value ([3]; permeabilized cells, exposure from 0 μM to 2 μM Ca2+, vehicle 0.84±0.07) was 1.76±0.27 AF/F0 and the urinary glucose secretion [4] was “near maximal”.
